Reference: patent publication US20240150334A1, “HSD17B13 INHIBITORS AND/OR DEGRADERS” (Pfizer Inc., priority 2022, published 2024)
Structures can show the parent of a compound that is named as a salt.

Tests used:
HSD17B13 enzyme = HSD17B13 enzyme (Homo sapiens (Human), UniProt Q7Z5P4); assay: hHSD17B13 IC50 Assay (FAC beta-estradiol), purified protein enzyme activity assay with NAD(P)H-Glo luciferase readout; assay type: biochemical; details: geometric mean, 12 μM FAC beta-estradiol, 500 μM NAD+, read-out: hHSD17B13_IC50 GMean IC50
HSD17B13 enzyme, sequence (Q7Z5P4 20-300): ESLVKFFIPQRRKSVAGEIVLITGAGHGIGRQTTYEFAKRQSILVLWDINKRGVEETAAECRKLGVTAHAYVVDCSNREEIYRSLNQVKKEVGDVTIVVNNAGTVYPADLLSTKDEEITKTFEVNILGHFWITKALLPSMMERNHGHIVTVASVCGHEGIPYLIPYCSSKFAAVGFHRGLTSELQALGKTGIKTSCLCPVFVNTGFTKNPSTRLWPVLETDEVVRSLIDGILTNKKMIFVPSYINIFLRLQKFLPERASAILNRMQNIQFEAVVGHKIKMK
Procedure: The following protocols may of course be varied by those skilled in the art. hHSD17B13 IC50 Assay (FAC beta-estradiol)
HSD17B13 enzyme inhibition potency of test compounds was determined using a purified protein biochemical enzyme activity assay, using NAD(P)H-Glo luciferase readout (Promega). HSD17B13 enzyme uses the oxidized form of nicotinamide adenine dinucleotide (NAD+) as a cofactor during metabolism of Beta-Estradiol (substrate) to […], while converting NAD+ to the reduced form (NADH). The Promega NAD(P)H-Glo™ assay is a homogeneous bioluminescent assay that generates a light signal from biochemical reactions that contain NADH (or nicotinamide adenine dinucleotide phosphate, NADPH). In the presence of NADH (or NADPH), the enzyme Reductase reduces a proluciferin reductase substrate to form luciferin. Luciferin then is quantified using Ultra-Glo™ Recombinant Luciferase (rLuciferase), and the light signal produced is proportional to the amount of NAD(P)H in the sample. […] The reaction was initiated by the addition of 2 μL/well purified HSD17B13 protein (30 nM FAC in assay buffer). Compound, substrate mix and HSD17B13 protein was incubated in the dark at room temperature for 2 hours before the addition of 3 μL/well NAD(P)H-Glo detection reagent, prepared from luciferase detection reagent and reductase/reductase substrate, as per manufacturer's instructions (Promega, G9061). Detection reagent was incubated in the dark for 1 hour at room temperature before plates were read on the Envision plate reader (Perkin Elmer) using a luminescent protocol. Data expressed as relative luminescent units (RLUs) were then normalized to control wells using Activity Base (IDBS). Zero percent effect (ZPE) was defined as RLUs generated from uninhibited HSD17B13 protein (vehicle control).

wild type human HSD17B13 = wild type human HSD17B13 (Homo sapiens (Human), UniProt Q7Z5P4); assay: HEK_Beta-Est LCMS_IC50_Tekcel, whole-cell HEK-HSD17B13 inhibition assay, estrone production by LCMS; assay type: cell-based; details: geometric mean, HEK cells stably expressing wild type human HSD17B13, 25 μM FAC beta-estradiol, read-out: HEK_Beta-Est LCMS_IC50—Tekcel GMean IC50
wild type human HSD17B13, sequence (Q7Z5P4 20-300): as above
Summary of the method: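 HEK cells expressing wild-type human HSD17B13 were preincubated with compound for 1 hour at 37° C, then the beta-estradiol/NAD+ reaction ran for 2 hours at 37° C. Estrone formed was quantified by LCMS as product area ratio and normalized to uninhibited vehicle-control wells.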

Structure (SMILES)	IC50 (HSD17B13 enzyme)	IC50 (wild type human HSD17B13)
O=C(NC[C@H]1CC[C@H](n2cc3cc(C(F)(F)F)ccc3n2)CC1)c1cc(F)c(O)cc1F [Example 183, 2,5-difluoro-4-hydroxy-N-({(1r,4r)-4-[5-(trifluoromethyl)-2H-indazol-2-yl]cyclohexyl}methyl)benzamide]	10 nM	450 nM
O=C(NC[C@H]1CC[C@H](n2cc3cc(Cl)ncc3n2)CC1)c1cc(F)c(O)c(F)c1 [Example 187, N-{[(1r,4r)-4-(5-chloro-2H-pyrazolo[3,4-c]pyridin-2-yl)cyclohexyl]methyl}-3,5-difluoro-4-hydroxybenzamide]	10 nM	400 nM
O=C(NC[C@H]1CC[C@H](n2cc3cc(F)ccc3n2)CC1)c1cc(F)c(O)c(F)c1 [Example 133, 3,5-difluoro-N-{[(1r,4r)-4-(5-fluoro-2H-indazol-2-yl)cyclohexyl]methyl}-4-hydroxybenzamide, ammonium salt]	29 nM	280 nM
Cn1ccc(-c2ccc3c(c2)CN([C@H]2CC[C@H](CNC(=O)c4cc(F)c(O)c(F)c4)CC2)C3=O)n1 [Example 20, 3,5-Difluoro-4-hydroxy-N-({(1r,4r)-4-[5-(1-methyl-1H-pyrazol-3-yl)-1-oxo-1,3-dihydro-2H-isoindol-2-yl]cyclohexyl}methyl)benzamide]	16 nM	490 nM
O=C(NC[C@H]1CC[C@H](c2nc3ccccc3o2)CC1)c1cc(F)c(O)c(F)c1 [Example 1, N-{[(1r,4r)-4-(1,3-Benzoxazol-2-yl)cyclohexyl]methyl}-3,5-difluoro-4-hydroxybenzamide]	14 nM	490 nM
O=C(NC[C@]12CC[C@](c3nc(-c4ccc(C(F)(F)F)nn4)no3)(CC1)CC2)c1cc(F)c(O)cc1F [Example 185, 2,5-difluoro-4-hydroxy-N-[(4-{3-[6-(trifluoromethyl)pyridazin-3-yl]-1,2,4-oxadiazol-5-yl}bicyclo[2.2.2]octan-1-yl)methyl]benzamide]	3.7 nM	140 nM
O=C(NC[C@H]1CC[C@H](c2nc(-c3cnc(C(F)(F)F)cn3)no2)CC1)c1cc(F)c(O)c(F)c1 [Example 139, 3,5-difluoro-4-hydroxy-N-{[(1r,4r)-4-{3-[5-(trifluoromethyl)pyrazin-2-yl]-1,2,4-oxadiazol-5-yl}cyclohexyl]methyl} benzamide]	22 nM	410 nM
O=C(NC[C@H]1CC[C@H](c2nc(-c3ccc(C(F)(F)F)cn3)no2)CC1)c1cc(F)c(O)c(F)c1F [Example 210, 2,3,5-trifluoro-4-hydroxy-N-{[(1r,4r)-4-{3-[5-(trifluoromethyl)pyridin-2-yl]-1,2,4-oxadiazol-5-yl}cyclohexyl]methyl}benzamide]	18 nM	450 nM
O=C(NC[C@H]1CC[C@H](n2cc3ccc(-c4cccnc4)cc3n2)CC1)c1cc(F)c(O)c(F)c1 [Example 72, 3,5-difluoro-4-hydroxy-N-({(1r,4r)-4-[6-(pyridin-3-yl)-2H-indazol-2-yl]cyclohexyl}methyl) benzamide]	7.8 nM	170 nM
CCn1cc(-c2ccc3cn([C@H]4CC[C@H](CNC(=O)c5cc(F)c(O)c(F)c5F)CC4)nc3c2)cn1 [Example 150, N-({(1r,4r)-4-[6-(1-ethyl-1H-pyrazol-4-yl)-2H-indazol-2-yl]cyclohexyl}methyl)-2,3,5-trifluoro-4-hydroxybenzamide, trifluoroacetate salt]	4.8 nM	120 nM
COc1cnc(-c2ccc3cn([C@H]4CC[C@H](CNC(=O)c5cc(F)c(O)c(F)c5)CC4)nc3c2)nc1 [Example 66, 3,5-difluoro-4-hydroxy-N-({(1r,4r)-4-[6-(5-methoxypyrimidin-2-yl)-2H-indazol-2-yl]cyclohexyl}methyl) benzamide]	7.5 nM	180 nM
O=C(NC[C@H]1CC[C@H](n2cc3ccc(-c4cncnc4)cc3n2)CC1)c1cc(F)c(O)c(F)c1 [Example 76, 3,5-difluoro-4-hydroxy-N-({(1r,4r)-4-[6-(pyrimidin-5-yl)-2H-indazol-2-yl]cyclohexyl}methyl)benzamide]	19 nM	190 nM
O=C(NC[C@H]1CC[C@H](n2cc3ccc(-c4cnn(C5CCOCC5)c4)cc3n2)CC1)c1cc(F)c(O)c(F)c1 [Example 12, 3,5-Difluoro-4-hydroxy-N-{[(1r,4r)-4-{6-[1-(oxan-4-yl)-1H-pyrazol-4-yl]-2H-indazol-2-yl}cyclohexyl]methyl}benzamide]	11 nM	290 nM
O=C(NC[C@H]1CC[C@H](n2cc3cc(C(F)(F)F)ccc3n2)CC1)c1cc(F)c(O)c(F)c1 [Example 181, 3,5-difluoro-4-hydroxy-N-({(1r,4r)-4-[5-(trifluoromethyl)-2H-indazol-2-yl]cyclohexyl}methyl) benzamide]	16 nM	230 nM
O=C(NC[C@H]1CC[C@H](n2cc3ccc(-c4ccccc4)cc3n2)CC1)c1cc(F)c(O)c(F)c1 [Example 68, 3,5-difluoro-4-hydroxy-N-{[(1r,4r)-4-(6-phenyl-2H-indazol-2-yl)cyclohexyl]methyl} benzamide]	7.8 nM	270 nM
O=C(NC[C@]12CC[C@](c3nc(-c4cnc(C(F)(F)F)cn4)no3)(CC1)CC2)c1cc(F)c(O)c(F)c1 [Example 191, 3,5-difluoro-4-hydroxy-N-[(4-{3-[5-(trifluoromethyl)pyrazin-2-yl]-1,2,4-oxadiazol-5-yl}bicyclo[2.2.2]octan-1-yl)methyl]benzamide]	9.7 nM	120 nM
Cn1cc(-c2ccc3cn([C@H]4CC[C@H](CNC(=O)c5cc(F)c(O)c(F)c5)CC4)nc3c2)c(C(F)F)n1 [Example 34, N-{[(1r,4r)-4-{6-[3-(difluoromethyl)-1-methyl-1H-pyrazol-4-yl]-2H-indazol-2-yl}cyclohexyl]methyl}-3,5-difluoro-4-hydroxybenzamide]	4.3 nM	310 nM
O=C(NC[C@]12CC[C@](c3nc(-c4ccc(C(F)(F)F)nc4)no3)(CC1)CC2)c1cc(F)c(O)c(F)c1F [Example 196, 2,3,5-trifluoro-4-hydroxy-N-[(4-{3-[6-(trifluoromethyl)pyridin-3-yl]-1,2,4-oxadiazol-5-yl}bicyclo[2.2.2]octan-1-yl)methyl]benzamide]	12 nM	340 nM
CCn1cc(-c2ccc3cn([C@H]4CC[C@H](CNC(=O)c5cc(F)c(O)c(F)c5)CC4)nc3c2)cn1 [Example 47, N-({(1r,4r)-4-[6-(1-ethyl-1H-pyrazol-4-yl)-2H-indazol-2-yl]cyclohexyl}methyl)-3,5-difluoro-4-hydroxybenzamide]	< 4.4 nM	110 nM
Cc1cc(C)nc(-c2ccc3cn([C@H]4CC[C@H](CNC(=O)c5cc(F)c(O)c(F)c5)CC4)nc3c2)n1 [Example 52, N-({(1r,4r)-4-[6-(4,6-dimethylpyrimidin-2-yl)-2H-indazol-2-yl]cyclohexyl}methyl)-3,5-difluoro-4-hydroxybenzamide]	15 nM	330 nM
COc1ncc(-c2cc3nn([C@H]4CC[C@H](CNC(=O)c5cc(F)c(O)c(F)c5)CC4)cc3cn2)cn1 [Example 8, 3,5-Difluoro-4-hydroxy-N-({(1r,4r)-4-[6-(2-methoxypyrimidin-5-yl)-2H-pyrazolo[4,3-c]pyridin-2-yl]cyclohexyl}methyl)benzamide]	18 nM	320 nM
Cc1ccnc(-c2ccc3cn([C@H]4CC[C@H](CNC(=O)c5cc(F)c(O)c(F)c5)CC4)nc3c2)n1 [Example 53, 3,5-difluoro-4-hydroxy-N-({(1r,4r)-4-[6-(4-methylpyrimidin-2-yl)-2H-indazol-2-yl]cyclohexyl}methyl)benzamide]	4.4 nM	200 nM
Cc1ccc(-c2ccc3cn([C@H]4CC[C@H](CNC(=O)c5cc(F)c(O)c(F)c5)CC4)nc3c2)nn1 [Example 63, 3,5-difluoro-4-hydroxy-N-({(1r,4r)-4-[6-(6-methylpyridazin-3-yl)-2H-indazol-2-yl]cyclohexyl}methyl) benzamide]	11 nM	370 nM
Cn1nccc1-c1ccc2cn([C@H]3CC[C@H](CNC(=O)c4cc(F)c(O)c(F)c4)CC3)nc2c1 [Example 62, 3,5-difluoro-4-hydroxy-N-({(1r,4r)-4-[6-(1-methyl-1H-pyrazol-5-yl)-2H-indazol-2-yl]cyclohexyl}methyl) benzamide]	8.7 nM	350 nM
COc1cnc(-c2noc([C@]34CC[C@](CNC(=O)c5cc(F)c(O)c(F)c5F)(CC3)CC4)n2)cn1 [Example 151, 2,3,5-trifluoro-4-hydroxy-N-({4-[3-(5-methoxypyrazin-2-yl)-1,2,4-oxadiazol-5-yl]bicyclo[2.2.2]octan-1-yl}methyl) benzamide]	8.2 nM	170 nM
